Test results from patent publication US10526327B2, “Histone demethylase inhibitors” (CELGENE QUANTICEL RESEARCH, INC., priority 2013, dated 2020).

Experiments:
[1] = target: T1, JMJD2C (Homo sapiens, UniProt Q9H3R0); assay: JMJD2C in vitro enzyme inhibition assay (TR-FRET); format: biochemical
T1 construct: purchased BPS Bioscience 50105
T1 sequence (Q9H3R0 2-372): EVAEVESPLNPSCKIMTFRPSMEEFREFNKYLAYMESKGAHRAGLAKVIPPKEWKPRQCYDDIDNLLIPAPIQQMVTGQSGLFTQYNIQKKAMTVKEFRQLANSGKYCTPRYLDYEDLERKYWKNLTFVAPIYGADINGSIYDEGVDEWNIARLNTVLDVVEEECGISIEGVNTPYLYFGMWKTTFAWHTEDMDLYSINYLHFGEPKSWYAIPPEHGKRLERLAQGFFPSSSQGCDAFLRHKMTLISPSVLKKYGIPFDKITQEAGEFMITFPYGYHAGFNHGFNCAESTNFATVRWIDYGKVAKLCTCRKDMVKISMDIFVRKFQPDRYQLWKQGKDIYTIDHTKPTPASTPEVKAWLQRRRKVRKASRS
Outline: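 IC50 came from 665/615 TR-FRET ratios (Eu-anti-H3K9me2 antibody, streptavidin-APC, EDTA quench) over 11-point inhibitor series. Reactions ran 30 min at room temperature: 0.3 nM JMJD2C (AA 2-372, baculovirus), 300 nM biotinylated H3K9me3 peptide, 2 μM alpha-ketoglutarate, 2 μM Fe(II), ascorbate, pH 7.3.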

[2] = target: T2, Jarid1B (Homo sapiens, UniProt Q9UGL1); assay: Jarid1B in vitro enzyme inhibition assay (TR-FRET); format: biochemical
T2 construct: purchased BPS Bioscience or custom made by MolecularThroughput 50121
T2 sequence (Q9UGL1 2-751): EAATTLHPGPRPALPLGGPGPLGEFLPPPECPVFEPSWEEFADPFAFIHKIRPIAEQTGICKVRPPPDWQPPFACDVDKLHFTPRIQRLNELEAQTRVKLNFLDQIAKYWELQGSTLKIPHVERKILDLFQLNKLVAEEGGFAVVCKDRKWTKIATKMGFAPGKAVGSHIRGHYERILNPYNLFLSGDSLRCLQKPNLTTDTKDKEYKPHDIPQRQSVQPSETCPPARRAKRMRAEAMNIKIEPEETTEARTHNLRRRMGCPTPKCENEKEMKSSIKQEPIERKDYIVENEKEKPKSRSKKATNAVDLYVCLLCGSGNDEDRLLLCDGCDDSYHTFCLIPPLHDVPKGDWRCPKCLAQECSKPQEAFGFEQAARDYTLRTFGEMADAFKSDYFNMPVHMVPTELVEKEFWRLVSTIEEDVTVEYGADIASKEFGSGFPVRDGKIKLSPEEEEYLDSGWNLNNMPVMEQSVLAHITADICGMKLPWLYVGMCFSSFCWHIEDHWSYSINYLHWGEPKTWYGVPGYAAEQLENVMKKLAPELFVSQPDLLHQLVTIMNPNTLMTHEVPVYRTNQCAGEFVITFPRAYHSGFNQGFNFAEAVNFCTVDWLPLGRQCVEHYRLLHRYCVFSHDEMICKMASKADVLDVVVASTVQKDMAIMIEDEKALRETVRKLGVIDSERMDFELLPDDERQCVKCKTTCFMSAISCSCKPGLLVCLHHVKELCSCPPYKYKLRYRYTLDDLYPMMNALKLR
Outline: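 TR-FRET read-out of demethylated product (Eu-anti-H3K4me1-2, streptavidin-APC) after EDTA quench; ratio 665/615 fitted to IC50. Reaction: 30 min at RT, 0.8 nM baculovirus Jarid1B residues 2-751, 2 μM α-ketoglutarate, 300 nM H3K4me3-biotin peptide, pH 7.3 buffer with Fe(II) and ascorbate.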

Row | SMILES | IC50 [1] | IC50 [2]
1 | O=S(=O)(C1CC1)N1CCCC(n2cc(Oc3nc(O)c4ccncc4n3)cn2)C1 (stereo in doubt) [Example 151, 2-({1-[(3S)-1-(cyclopropanesulfonyl)piperidin-3-yl]-1H-pyrazol-4-yl}oxy)pyrido[3,4-d]pyrimidin-4-ol] | ≤ 100 nM | ≤ 100 nM
2 | Oc1nc(Oc2cnn(C3CCCN(c4ccc(F)cc4)C3)c2)nc2cnccc12 (stereo in doubt) [Example 169, 2-({1-[(3R)-1-(4-fluorophenyl)piperidin-3-yl]-1H-pyrazol-4-yl}oxy)pyrido[3,4-d]pyrimidin-4-ol] | ≤ 100 nM | ≤ 100 nM
3 | Oc1nc(OCCC(F)(F)F)nc2cnccc12 [Example 13, 2-(3,3,3-trifluoropropoxy)pyrido[3,4-d]pyrimidin-4-ol] | 100 to 1000 nM | 100 to 1000 nM
4 | CC(C)COc1nc(O)c2ccncc2n1 [Example 14, 2-(2-methylpropoxy)pyrido[3,4-d]pyrimidin-4-ol] | 100 to 1000 nM | 100 to 1000 nM
5 | CC(C)CCOc1nc(O)c2ccncc2n1 [Example 15, 2-(3-methylbutoxy)pyrido[3,4-d]pyrimidin-4-ol] | 100 to 1000 nM | ≤ 100 nM
6 | CCC(C)COc1nc(O)c2ccncc2n1 (stereo not shown) [Example 16, 2-(2-methylbutoxy)pyrido[3,4-d]pyrimidin-4-ol] | 100 to 1000 nM | 100 to 1000 nM
7 | CC(Cc1ccccc1)Oc1nc(O)c2ccncc2n1 (stereo not shown) [Example 19, 2-(1-phenylpropan-2-yloxy)pyrido[3,4-d]pyrimidin-4-ol] | 1000 to 10000 nM | 1000 to 10000 nM
8 | Oc1nc(OCCCC(F)(F)F)nc2cnccc12 [Example 20, 2-(4,4,4-trifluorobutoxy)pyrido[3,4-d]pyrimidin-4-ol] | 100 to 1000 nM | ≤ 100 nM
9 | CN(C)CCCOc1nc(O)c2ccncc2n1 [Example 21, 2-[3-(dimethylamino)propoxy]pyrido[3,4-d]pyrimidin-4-ol] | 100 to 1000 nM | 1000 to 10000 nM
10 | COCCOc1nc(O)c2ccncc2n1 [Example 22, 2-(2-methoxyethoxy)pyrido[3,4-d]pyrimidin-4-ol] | 100 to 1000 nM | 100 to 1000 nM
11 | Oc1nc(Oc2cnn(C(c3ccccc3)C3CC3)c2)nc2cnccc12 (stereo not shown) [Example 116, 2-({1-[cyclopropyl(phenyl)methyl]-1H-pyrazol-4-yl}oxy)pyrido[3,4-d]pyrimidin-4-ol] | ≤ 100 nM | ≤ 100 nM
12 | Oc1nc(Oc2cnn(C3CCN(Cc4ccccc4)CC3)c2)nc2cnccc12 [Example 123, 2-{[1-(1-benzylpiperidin-4-yl)-1H-pyrazol-4-yl]oxy}pyrido[3,4-d]pyrimidin-4-ol] | ≤ 100 nM | ≤ 100 nM
13 | Oc1nc(Oc2cnn(CCN3CCOCC3)c2)nc2cnccc12 [Example 124, 2-({1-[2-(morpholin-4-yl)ethyl]-1H-pyrazol-4-yl}oxy)pyrido[3,4-d]pyrimidin-4-ol] | ≤ 100 nM | ≤ 100 nM
14 | Oc1nc(Oc2cnn([C@@H]3CCNC3)c2)nc2cnccc12 [Example 125, 2-({1-[(3R)-pyrrolidin-3-yl]-1H-pyrazol-4-yl}oxy)pyrido[3,4-d]pyrimidin-4-ol] | ≤ 100 nM | ≤ 100 nM
15 | CCS(=O)(=O)N1CC[C@@H](n2cc(Oc3nc(O)c4ccncc4n3)cn2)C1 [Example 126, 2-({1-[(3R)-1-(ethanesulfonyl)pyrrolidin-3-yl]-1H-pyrazol-4-yl}oxy)pyrido[3,4-d]pyrimidin-4-ol] | ≤ 100 nM | ≤ 100 nM

The remaining lines, values ahead:

Row | IC50 [1] | IC50 [2] | SMILES
16 | 100 to 1000 nM | 100 to 1000 nM | CC(COc1nc(O)c2ccncc2n1)c1ccccc1 (stereo not shown) [Example 17, 2-(2-phenylpropoxy)pyrido[3,4-d]pyrimidin-4-ol]
17 | 100 to 1000 nM | ≤ 100 nM | Oc1nc(OCCc2ccccc2)nc2cnccc12 [Example 18, 2-(2-phenylethoxy)pyrido[3,4-d]pyrimidin-4-ol]
18 | 100 to 1000 nM | ≤ 100 nM | Cn1cnc(-c2nccc3c(O)nc(OCc4ccccc4C(F)(F)F)nc23)c1 [Example 107, 8-(1-methyl-1H-imidazol-4-yl)-2-{[2-(trifluoromethyl)phenyl]methoxy}pyrido[3,4-d]pyrimidin-4-ol]
19 | 100 to 1000 nM | 1000 to 10000 nM | Cn1cnc(-c2nccc3c(O)nc(O[C@H](c4ccccc4)C(F)(F)F)nc23)c1 [Example 108, 8-(1-methyl-1H-imidazol-4-yl)-2-[(1R)-2,2,2-trifluoro-1-phenylethoxy]pyrido[3,4-d]pyrimidin-4-ol]
20 | 100 to 1000 nM | 1000 to 10000 nM | Cn1cnc(-c2nccc3c(O)nc(O[C@@H](c4ccccc4)C(F)(F)F)nc23)c1 [Example 109, 8-(1-methyl-1H-imidazol-4-yl)-2-[(1S)-2,2,2-trifluoro-1-phenylethoxy]pyrido[3,4-d]pyrimidin-4-ol]
21 | 1000 to 10000 nM | 100 to 1000 nM | CCC(Oc1nc(O)c2ccnc(-c3cn(C)cn3)c2n1)C(F)(F)F (stereo not shown) [Example 110, 8-(1-methyl-1H-imidazol-4-yl)-2-[(1,1,1-trifluorobutan-2-yl)oxy]pyrido[3,4-d]pyrimidin-4-ol]
22 | 100 to 1000 nM | 100 to 1000 nM | Cn1cnc(-c2nccc3c(O)nc(OCc4ccc(C(F)(F)F)cc4)nc23)c1 [Example 111, 8-(1-methyl-1H-imidazol-4-yl)-2-{[4-(trifluoromethyl)phenyl]methoxy}pyrido[3,4-d]pyrimidin-4-ol]
23 | 100 to 1000 nM | ≤ 100 nM | Cn1cnc(-c2nccc3c(O)nc(OCc4ccc(Cl)cc4)nc23)c1 [Example 112, 2-[(4-chlorophenyl)methoxy]-8-(1-methyl-1H-imidazol-4-yl)pyrido[3,4-d]pyrimidin-4-ol]
24 | ≤ 100 nM | ≤ 100 nM | Cn1cnc(-c2nccc3c(O)nc(Oc4ccc(Cl)c(Cl)c4)nc23)c1 [Example 113, 2-(3,4-dichlorophenoxy)-8-(1-methyl-1H-imidazol-4-yl)pyrido[3,4-d]pyrimidin-4-ol]
25 | ≤ 100 nM | ≤ 100 nM | Oc1nc(Oc2ccc(Cl)c(Cl)c2)nc2cnccc12 [Example 114, 2-(3,4-dichlorophenoxy)pyrido[3,4-d]pyrimidin-4-ol]
26 | ≤ 100 nM | ≤ 100 nM | CCC(c1ccccc1)n1cc(Oc2nc(O)c3ccncc3n2)cn1 (stereo not shown) [Example 115, 2-{[1-(1-phenylpropyl)-1H-pyrazol-4-yl]oxy}pyrido[3,4-d]pyrimidin-4-ol]
27 | ≤ 100 nM | ≤ 100 nM | C[C@H](c1ccccc1)n1cc(Oc2nc(O)c3ccncc3n2)cn1 [Example 117, 2-({1-[(1R)-1-phenylethyl]-1H-pyrazol-4-yl}oxy)pyrido[3,4-d]pyrimidin-4-ol]
28 | ≤ 100 nM | ≤ 100 nM | C[C@@H](c1ccccc1)n1cc(Oc2nc(O)c3ccncc3n2)cn1 [Example 118, 2-({1-[(1S)-1-phenylethyl]-1H-pyrazol-4-yl}oxypyrido) [3,4-d]pyrimidin-4-ol]
29 | ≤ 100 nM | ≤ 100 nM | C[C@H](c1ccccc1F)n1cc(Oc2nc(O)c3ccncc3n2)cn1 [Example 119, 2-({1-[(1R)-1-(2-fluorophenyl)ethyl]-1H-pyrazol-4-yl}oxy)pyrido[3,4-d]pyrimidin-4-ol]
30 | ≤ 100 nM | ≤ 100 nM | C[C@@H](c1ccccc1F)n1cc(Oc2nc(O)c3ccncc3n2)cn1 [Example 120, 2-({1-[(1s)-1-(2-fluorophenyl)ethyl]-1H-pyrazol-4-yl}oxy)pyrido[3,4-d]pyrimidin-4-ol]
31 | ≤ 100 nM | ≤ 100 nM | Oc1nc(Oc2cnn(Cc3ccccc3Cl)c2)nc2cnccc12 [Example 121, 2-({1-[(2-chlorophenyl)methyl]-1H-pyrazol-4-yl}oxy)pyrido[3,4-d]pyrimidin-4-ol]
32 | ≤ 100 nM | ≤ 100 nM | Oc1nc(Oc2cnn(Cc3cccc(Cl)c3)c2)nc2cnccc12 [Example 122, 2-({1-[(3-chlorophenyl)methyl]-1H-pyrazol-4-yl}oxy)pyrido[3,4-d]pyrimidin-4-ol]
